# System: wild type C. elegans
# Assay: Pheromone-induced dauer formation in wild type C. elegans in the presence of DHCA
# Assay type: in vivo
# Details: wild type (N2) C. elegans treated by pheromone, pheromone alone around 20% dauer
# Protocol: FIG. 5 is a bar graph showing that dihydrocaffeic acid (DHCA) is the ligand for DCAR-1 GPCR. DHCA is the food signal that competes with the dauer-inducing pheromone to suppress dauer formation. (*P<0.01, t-test, N2 treated with 0 nM DHCA compared to N2 treated with 25 nM DHCA and N2 treated with 25 nM DHCA compared to N2 treated with 100 nM DHCA. ns, no statistical significant difference.) Recovery of dauer larvae requires the presence of food. G protein-coupled receptors (GPCRs) detect molecules such as food odors and activate internal signal transduction pathways. We identified a GPCR, DCAR-1, which is involved in detection of food signals in C. elegans. […] The recovery percentage of daf-2 and daf-7 mutant dauer larvae decreased by 25% when dcar-1 is mutated. Dihydrocaffeic acid (DHCA) is the ligand for DCAR-1. […] When wild type C. elegans was treated by pheromone, around 20% of animals entered dauer. However, in the presence of 25 nM DHCA, the percentage of dauer was decreased to 5%. […] Thus, DCAR-1 inhibitors act to block detection of foods signals by infective nematode parasites and to suppress the growth of parasites to adults.
structure (smiles),measurement,setting,value
"O=C(O)CCc1ccc(O)c(O)c1 [DHCA, Dihydrocaffeic acid]",percentage of dauer,25 nM DHCA,5%
same,percentage of dauer,100 nM DHCA,none of animals formed dauer

# From patent publication US12233036B2, “Inhibitors of autophagy and DCAR-1 as novel anthelmintic agents” (FLORIDA ATLANTIC UNIVERSITY BOARD OF TRUSTEES, priority 2019, dated 2025)
